From ChEMBL document CHEMBL1129061, “Inhibition of human glutathione reductase by 10-arylisoalloxazines: crystalline, kinetic, and electrochemical studies” (J Med Chem, 1996) come the findings set out here.

The assay concerns the target T1, Glutathione reductase, mitochondrial (Homo sapiens, UniProt P00390).
T1 sequence (P00390 whole entry): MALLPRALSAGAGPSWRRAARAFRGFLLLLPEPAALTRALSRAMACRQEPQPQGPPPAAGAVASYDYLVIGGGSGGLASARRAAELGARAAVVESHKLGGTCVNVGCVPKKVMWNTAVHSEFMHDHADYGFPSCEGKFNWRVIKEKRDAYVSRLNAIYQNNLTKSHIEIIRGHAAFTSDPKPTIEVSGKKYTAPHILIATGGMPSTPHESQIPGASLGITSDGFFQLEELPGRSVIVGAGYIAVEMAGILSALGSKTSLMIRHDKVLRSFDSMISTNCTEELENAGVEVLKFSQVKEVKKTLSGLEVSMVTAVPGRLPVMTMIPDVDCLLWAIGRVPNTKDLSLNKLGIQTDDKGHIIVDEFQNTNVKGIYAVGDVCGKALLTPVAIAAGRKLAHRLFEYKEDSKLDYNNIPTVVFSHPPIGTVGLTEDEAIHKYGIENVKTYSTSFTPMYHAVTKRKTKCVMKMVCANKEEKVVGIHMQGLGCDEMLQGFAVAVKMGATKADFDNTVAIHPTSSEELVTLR
Nature of the assay: Inhibitory activity against human glutathione reductase in presence of 100 uM GSSG.

Each structure is given as a SMILES string. Some results are limits rather than exact numbers.

What is called IC50 is the midpoint of a concentration-inhibition curve. As to `Cn1c(=O)nc2n(-c3cccnc3)c3ccccc3nc-2c1=O`, the IC50 amounted to 8 µM.
The same measure for `Cn1c(=O)nc2n(-c3ccc(Cl)cc3)c3cc(N=[N+]=[N-])ccc3nc-2c1=O`: 2.5 µM.
As for `CCOC(=O)Cn1c(=O)nc2n(-c3cccc(C(F)(F)F)c3)c3ccccc3nc-2c1=O`, the IC50 was determined as 8 µM.
Next, `Cn1c(=O)nc2n(-c3cccc(C(F)(F)F)c3)c3ccccc3nc-2c1=O`: 1 µM.
Regarding `O=c1nc2n(-c3c(F)c(F)c(F)c(F)c3F)c3ccccc3nc-2c(=O)[nH]1`, the IC50 amounted to 3.5 µM.
The same measure for `O=C(O)Cn1c(=O)nc2n(-c3cccc(C(F)(F)F)c3)c3ccccc3nc-2c1=O`: 20 µM; for `CCOC(=O)Cn1c(=O)nc2n(-c3ccc(Cl)cc3)c3ccccc3nc-2c1=O`: 18 µM.
The same measure for `Cn1c(=O)nc2n(-c3ccncc3)c3ccccc3nc-2c1=O`: 3 µM.
The same measure for `Cn1c(=O)nc2n(-c3ccc(Cl)cc3)c3ccccc3nc-2c1=O`: less than 1 µM; for `Cn1c(=O)nc2n(-c3ccccc3)c3ccccc3nc-2c1=O`: 2 µM.
Take `O=c1nc2n(-c3ccc(Cl)cc3)c3ccccc3nc-2c(=O)[nH]1`: the IC50 was less than 1 µM.
Next, `Cn1c(=O)nc2n(-c3cc(C(F)(F)F)cc(C(F)(F)F)c3)c3ccccc3nc-2c1=O`: 5 µM.
The same measure for `O=C(O)Cn1c(=O)nc2n(-c3cc(Cl)cc(Cl)c3)c3ccccc3nc-2c1=O`: 14 µM; for `O=c1nc2n(-c3cc(C(F)(F)F)cc(C(F)(F)F)c3)c3ccccc3nc-2c(=O)[nH]1`: 3.5 µM; for `O=c1nc2n(-c3cccc(C(F)(F)F)c3)c3ccccc3nc-2c(=O)[nH]1`: 1 µM.
The same measure for `Cn1c(=O)nc2n(-c3cc[n+](C)cc3)c3ccccc3nc-2c1=O`: 40 µM.
For the compound `Cn1c(=O)nc2n(-c3cccc4cc5ccccc5cc34)c3ccccc3nc-2c1=O`, the IC50 stood at 4 µM.
Consider `CCOC(=O)Cn1c(=O)nc2n(-c3cc(C(F)(F)F)cc(C(F)(F)F)c3)c3ccccc3nc-2c1=O`, for which the IC50 is 100 µM.
Next, `O=C(O)Cn1c(=O)nc2n(-c3cc(C(F)(F)F)cc(C(F)(F)F)c3)c3ccccc3nc-2c1=O`: 25 µM; `Cn1c(=O)nc2n(-c3c(F)c(F)c(F)c(F)c3F)c3ccccc3nc-2c1=O`: less than 1 µM; `Cn1c(=O)nc2n(-c3cccc4ccccc34)c3ccccc3nc-2c1=O`: 2 µM.
As to `Cn1c(=O)nc2n(-c3ccc(Cl)cc3)c3cc(F)ccc3nc-2c1=O`, the IC50 was 1 µM.
The same measure for `Cn1c(=O)nc2n(-c3cc(Cl)cc(Cl)c3)c3ccccc3nc-2c1=O`: less than 1 µM.
As to `CCOC(=O)Cn1c(=O)nc2n(-c3cc(Cl)cc(Cl)c3)c3ccccc3nc-2c1=O`, the IC50 is 7 µM.
Consider `O=c1nc2n(-c3cc(Cl)cc(Cl)c3)c3ccccc3nc-2c(=O)[nH]1`, for which the IC50 was less than 1 µM.
Turning to `O=C(O)Cn1c(=O)nc2n(-c3ccc(Cl)cc3)c3ccccc3nc-2c1=O`, the IC50 is 12 µM.
